SMILES strings stand for the structures.

In one test the target is IκB-α kinase. In words: IκB-α kinase inhibitory activity, in vitro kinase assay. The test is classed as biochemical.
In another test the target is T1, p34^cdc2/cyclin B (CDC2) (Homo sapiens, UniProt P06493).
T1 construct: made in house; host or cells: Sf9 insect cells (baculovirus co-infection)
In words: CDK inhibition assay, p34cdc2/cyclin B kinase, histone H1 phosphorylation. The test is classed as biochemical. Here is the method:
Cyclin-dependent kinases (p34^cdc2, p33^cdk2) and cyclins (cyclin B, E) are produced in Sf9 insect cells coinfected with appropriate baculoviral constructs. The cells are harvested 68-72 hrs post infection in lysis buffer for 30 min on ice and the soluble fraction is recovered by centrifugation at 14.000 g for 10 min. The protein extract is stored at −80° C.
Lysis buffer: 50 mM Tris pH 7.4, 150 mM NaCl, 5 mM EDTA, 20 mM NaF, 1% Tween, 1 mM DTT, 0.1 mM PMSF, leupeptine, aprotonine.
To carry out experiments on kinetics under linear conditions, the final point test system for kinase activity measurement is used. The kinase is added to reaction mixture in such a way as to obtain linear activity with respect to the concentration of enzyme and with respect to time.
The p34^cdc2 and p33^cdk2 kinase inhibition determination involves the use of 1 mg/ml histone H1 (Sigma, type III-S) in the presence of 15 μM [γ-^32P]ATP ([…]) (Amersham) in a final volume of 20 μl. Kinase activity is determined at 30° C. in the kinase buffer.
Tested compounds are usually dissolved to 100 mM solutions in DMSO, final concentration of DMSO in reaction mixture never exceeds 1%. The controls contain suitable dilutions of DMSO.
After 10 min, addition 3×SDS sample buffer stops the incubations. Phosphorylated proteins are separated electrophoretically using 12.5% SDS polyacrylamide gel. The measurement of kinase activity is done using digital image analysis.
The kinase activity is expressed as a percentage of maximum activity, the apparent inhibition constants are determined by graphic analysis (FIG. 1).
Kinase buffer: 50 mM Hepes pH 7.4, 10 mM MgCl2, 5 mM EGTA, 10 mM 2-glycerolphosphate, 1 mM NaF, 1 mM DTT

T1 sequence (P06493 whole entry, species assumed): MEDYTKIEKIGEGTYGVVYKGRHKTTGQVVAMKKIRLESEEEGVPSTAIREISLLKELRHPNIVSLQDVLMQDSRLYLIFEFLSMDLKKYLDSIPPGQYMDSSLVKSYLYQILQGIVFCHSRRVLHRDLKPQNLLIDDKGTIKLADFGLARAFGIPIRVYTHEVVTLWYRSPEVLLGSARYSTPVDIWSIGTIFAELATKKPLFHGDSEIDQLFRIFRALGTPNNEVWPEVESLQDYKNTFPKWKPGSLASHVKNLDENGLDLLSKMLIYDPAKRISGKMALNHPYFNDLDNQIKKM
T1 sequence (P14635 whole entry partner, species assumed): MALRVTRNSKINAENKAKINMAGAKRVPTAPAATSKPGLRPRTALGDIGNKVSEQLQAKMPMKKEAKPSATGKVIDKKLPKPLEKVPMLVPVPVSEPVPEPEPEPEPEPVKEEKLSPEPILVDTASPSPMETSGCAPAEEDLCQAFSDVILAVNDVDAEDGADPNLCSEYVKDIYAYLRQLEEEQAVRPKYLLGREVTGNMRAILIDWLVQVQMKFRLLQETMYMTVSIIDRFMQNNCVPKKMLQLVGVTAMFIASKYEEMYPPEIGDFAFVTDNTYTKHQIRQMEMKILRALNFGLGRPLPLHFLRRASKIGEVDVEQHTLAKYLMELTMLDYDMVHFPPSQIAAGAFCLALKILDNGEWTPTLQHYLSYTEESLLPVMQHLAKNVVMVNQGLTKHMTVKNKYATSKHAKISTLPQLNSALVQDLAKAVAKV

A word on the IC50: it is the concentration that inhibits the measured activity by half. A low value points to greater potency in that assay. Consider `Cn1nnc2c(NCc3ccccc3)nc(NC3CCCCC3N)nc21` (stereo not drawn), for which the IC50 at IκB-α kinase stood at 70 µM; against p34^cdc2/cyclin B (CDC2), 25 µM.

`COc1cc(O)c(CNc2nc(NCCO)nc3c2nnn3C)cc1O` displayed a concentration for half-maximal inhibition (IC50) on p34^cdc2/cyclin B (CDC2) of 22 µM.

On p34^cdc2/cyclin B (CDC2), `COc1cc(O)c(CNc2nc(NCCO)nc3c2nnn3C)c(O)c1` returned an IC50 of 18.2 µM. The IC50 values of the last two compounds are within 1.5-fold of each other.

As for `Cn1nnc2c(NCc3ccc(Cl)c(N)c3)nc(NCCO)nc21`, it took 50 µM to reach half-maximal inhibition against p34^cdc2/cyclin B (CDC2) (IC50).

As to `Cn1nnc2c(Nc3cccc(Cl)c3)nc(NCCO)nc21`, the IC50 at IκB-α kinase is more than 100 µM.

As for `Cn1nnc2c(NCc3ccc(O)c(O)c3)nc(NCCO)nc21`, at IκB-α kinase, the IC50 is more than 100 µM.

For `CN(Cc1ccc(O)c(O)c1)c1nc(NCCO)nc2c1nnn2C`, the IC50 against IκB-α kinase is more than 100 µM.

Consider `Cn1nnc2c(NCc3ccccc3)nc(NC3CCC(N)CC3)nc21` (stereo not drawn), for which the IC50 at IκB-α kinase is 40 µM; against p34^cdc2/cyclin B (CDC2), 16 µM.

With `Cn1nnc2c(NCc3ccccc3)nc(N(CCO)CCO)nc21`, the IC50 against IκB-α kinase is more than 100 µM.

With `CC(C)[C@H](CO)Nc1nc(NCc2c(N)cccc2Cl)c2nnn(C(C)C)c2n1`, the IC50 against IκB-α kinase was more than 100 µM; on p34^cdc2/cyclin B (CDC2), 10 µM.

For `CC(C)[C@H](CO)Nc1nc(NCc2cccc(Cl)c2O)c2nnn(C(C)C)c2n1`, the IC50 against IκB-α kinase turned out to be 60 µM; at p34^cdc2/cyclin B (CDC2) it was 32 µM.

With `COc1cccc(CNc2nc(N[C@@H](CO)C(C)C)nc3c2nnn3C(C)C)c1O`, the IC50 against IκB-α kinase was more than 100 µM; against p34^cdc2/cyclin B (CDC2), 55 µM.

Take `Cc1cccc(CNc2nc(N[C@@H](CO)C(C)C)nc3c2nnn3C(C)C)c1O`: the values for the IC50 at IκB-α kinase and on p34^cdc2/cyclin B (CDC2) were 55 µM and 18 µM, respectively.

Take `CC(C)[C@H](CO)Nc1nc(NCc2ccc(Cl)c(O)c2O)c2nnn(C(C)C)c2n1`: the results for the IC50 on IκB-α kinase and against p34^cdc2/cyclin B (CDC2) were more than 100 µM and 11 µM, respectively.

On to `CC(C)[C@H](CO)Nc1nc(NCc2cc(O)c(Cl)cc2O)c2nnn(C(C)C)c2n1`, for which the IC50 against IκB-α kinase is more than 100 µM; at p34^cdc2/cyclin B (CDC2), 8 µM.

With `COc1cc(O)c(CNc2nc(N[C@@H](CO)C(C)C)nc3c2nnn3C(C)C)c(O)c1`, the IC50 against IκB-α kinase is more than 100 µM; at p34^cdc2/cyclin B (CDC2), 10 µM.

`CC(C)[C@H](CO)Nc1nc(NCc2c(O)cc(Cl)cc2O)c2nnn(C(C)C)c2n1`: the IC50 at p34^cdc2/cyclin B (CDC2) came out at 18 µM.

As to `CC(C)[C@H](CO)Nc1nc(NCc2ccc(Cl)c(N)c2)c2nnn(C(C)C)c2n1`, the figures for the IC50 against IκB-α kinase and against p34^cdc2/cyclin B (CDC2) were more than 100 µM and 30 µM, respectively.

`CC(C)[C@H](CO)Nc1nc(Nc2ccc(C(=O)O)c(Cl)c2)c2nnn(C(C)C)c2n1`: on p34^cdc2/cyclin B (CDC2), the IC50 amounted to 25 µM. This counts as double-digit micromolar.

In the case of `CC(C)[C@H](CO)Nc1nc(Nc2cc(N)cc(Cl)c2)c2nnn(C(C)C)c2n1`, the values for the IC50 on IκB-α kinase and against p34^cdc2/cyclin B (CDC2) were 80 µM and 27 µM, respectively.

As for `CC(C)[C@H](CO)Nc1nc(NCc2ccc(O)c(O)c2)c2nnn(C(C)C)c2n1`, the IC50 at IκB-α kinase is more than 100 µM; on p34^cdc2/cyclin B (CDC2), 20 µM.

The compound `CC(C)[C@H](CO)Nc1nc(N(C)CCc2ccc(O)c(O)c2)c2nnn(C(C)C)c2n1` registered an IC50 against IκB-α kinase of more than 100 µM.

For `CC(C)[C@H](CO)Nc1nc(NCc2ccccc2)c2nnn(C)c2n1`, the results for the IC50 against IκB-α kinase and on p34^cdc2/cyclin B (CDC2) were more than 100 µM and 50 µM, respectively.

The compound `CCC(CO)Nc1nc(NCc2cccc(Cl)c2O)c2nnn(C(C)C)c2n1` (stereo not drawn) gave an IC50 against p34^cdc2/cyclin B (CDC2) of 16 µM.

At p34^cdc2/cyclin B (CDC2), `CC[C@H](CO)Nc1nc(NCc2c(O)cc(Cl)cc2O)c2nnn(C(C)C)c2n1` showed an IC50 of 12 µM. This IC50 and that of the compound before are within 1.5-fold of each other.

Turning to `CC[C@H](CO)Nc1nc(Nc2ccc(Cl)cc2)c2nnn(C(C)C)c2n1`, at p34^cdc2/cyclin B (CDC2), the IC50 was 27 µM. This IC50 lies about 2.2-fold higher than the previous one.

For the compound `CC[C@H](CO)Nc1nc(N(C)CCc2ccc(O)c(O)c2)c2nnn(C(C)C)c2n1`, the IC50 against IκB-α kinase and against p34^cdc2/cyclin B (CDC2) was more than 100 µM each time.

Regarding `CC[C@H](CO)Nc1nc(N(C)Cc2ccc(O)c(O)c2)c2nnn(C(C)C)c2n1`, the IC50 on IκB-α kinase is more than 100 µM.

Compound `CCC(CO)Nc1nc(NC(CO)c2ccccc2)c2nnn(C(C)C)c2n1` (stereo not drawn) came in with a 50% inhibitory concentration (IC50) at IκB-α kinase of more than 100 µM.

As to `CC[C@H](CO)Nc1nc(NCc2ccccc2)c2nnn(C)c2n1`, the IC50 against IκB-α kinase is more than 100 µM.

Compound `CC[C@H](CO)Nc1nc(NCc2ccccc2)c2nnn(C(C)C)c2n1` [2-[1(R)-Hydroxymethylpropylamino]-6-benzylamino-9-isopropyl-8-azapurine] had an IC50 at IκB-α kinase of more than 100 µM.
